{
  "source": "PubChem BioAssay AID1259407",
  "about": "(Chemical Carcinogenesis Research Information System (CCRIS), 2018)",
  "test_system": "CCRIS mutagenicity, Ames/micronucleus/aberration tests",
  "assay": "CCRIS mutagenicity studies",
  "key": {"[1]": {"conditions": "End Point: IN VITRO CHROMOSOMAL ABERRATIONS, Test System: CHO CELLS, Metabolic Activation: NONE"}, "[2]": {"conditions": "Test System: AMES SALMONELLA TYPHIMURIUM, Strain/Indicator: TA98, Metabolic Activation: NONE, Method: PREINCUBATION"}, "[3]": {"conditions": "Test System: AMES SALMONELLA TYPHIMURIUM, Strain/Indicator: TA98, Metabolic Activation: NONE, Method: STANDARD PLATE"}, "[4]": {"conditions": "Test System: AMES SALMONELLA TYPHIMURIUM, Strain/Indicator: TA100, Metabolic Activation: NONE, Method: PREINCUBATION"}, "[5]": {"conditions": "Test System: AMES SALMONELLA TYPHIMURIUM, Strain/Indicator: TA100, Metabolic Activation: NONE, Method: STANDARD PLATE"}, "[6]": {"conditions": "Test System: AMES SALMONELLA TYPHIMURIUM, Strain/Indicator: TA1535, Metabolic Activation: NONE, Method: PREINCUBATION"}},
  "note": "Calls of active or inactive are those of the source. The rule behind the calls is not given here.",
  "data": [
    {"smiles": "CCOC(=O)CC(SP(=O)(OC)OC)C(=O)OCC", "note": "(stereo not drawn)", "values": [
      {"measurement": "mutagenic call", "setting": "[1]", "value": "inactive; negative"},
      {"measurement": "mutagenic call", "setting": "Test System: AMES SALMONELLA TYPHIMURIUM, Strain/Indicator: TA97, Metabolic Activation: HAMSTER, LIVER, S-9, AROCLOR 1254 (10 OR 30%), Method: PREINCUBATION", "value": "inactive; negative"},
      {"measurement": "mutagenic call", "setting": "Test System: AMES SALMONELLA TYPHIMURIUM, Strain/Indicator: TA97, Metabolic Activation: NONE, Method: PREINCUBATION", "value": "inactive; negative"},
      {"measurement": "mutagenic call", "setting": "Test System: AMES SALMONELLA TYPHIMURIUM, Strain/Indicator: TA97, Metabolic Activation: RAT, LIVER, S-9, AROCLOR 1254 (10 OR 30%), Method: PREINCUBATION", "value": "inactive; negative"},
      {"measurement": "mutagenic call", "setting": "Test System: AMES SALMONELLA TYPHIMURIUM, Strain/Indicator: TA98, Metabolic Activation: HAMSTER, LIVER, S-9, AROCLOR 1254 (10 OR 30%), Method: PREINCUBATION", "value": "inactive; negative"},
      {"measurement": "mutagenic call", "setting": "[2]", "value": "inactive; negative"},
      {"measurement": "mutagenic call", "setting": "[3]", "value": "inactive; negative"},
      {"measurement": "mutagenic call", "setting": "Test System: AMES SALMONELLA TYPHIMURIUM, Strain/Indicator: TA98, Metabolic Activation: RAT, LIVER, S-9, AROCLOR 1254 (10 OR 30%), Method: PREINCUBATION", "value": "inactive; negative"},
      {"measurement": "mutagenic call", "setting": "Test System: AMES SALMONELLA TYPHIMURIUM, Strain/Indicator: TA98, Metabolic Activation: RAT, LIVER, S-9, Method: STANDARD PLATE", "value": "active; positive"},
      {"measurement": "mutagenic call", "setting": "Test System: AMES SALMONELLA TYPHIMURIUM, Strain/Indicator: TA100, Metabolic Activation: HAMSTER, LIVER, S-9, AROCLOR 1254 (10 OR 30%), Method: PREINCUBATION", "value": "inactive; negative"},
      {"measurement": "mutagenic call", "setting": "[4]", "value": "inactive; negative"},
      {"measurement": "mutagenic call", "setting": "[5]", "value": "active; positive"},
      {"measurement": "mutagenic call", "setting": "Test System: AMES SALMONELLA TYPHIMURIUM, Strain/Indicator: TA100, Metabolic Activation: RAT, LIVER, S-9, AROCLOR 1254 (10 OR 30%), Method: PREINCUBATION", "value": "inactive; negative"},
      {"measurement": "mutagenic call", "setting": "Test System: AMES SALMONELLA TYPHIMURIUM, Strain/Indicator: TA100, Metabolic Activation: RAT, LIVER, S-9, Method: STANDARD PLATE", "value": "inactive; negative"},
      {"measurement": "mutagenic call", "setting": "Test System: AMES SALMONELLA TYPHIMURIUM, Strain/Indicator: TA1535, Metabolic Activation: HAMSTER, LIVER, S-9, AROCLOR 1254 (10 OR 30%), Method: PREINCUBATION", "value": "inactive; negative"},
      {"measurement": "mutagenic call", "setting": "[6]", "value": "inactive; negative"},
      {"measurement": "mutagenic call", "setting": "Test System: AMES SALMONELLA TYPHIMURIUM, Strain/Indicator: TA1535, Metabolic Activation: RAT, LIVER, S-9, AROCLOR 1254 (10 OR 30%), Method: PREINCUBATION", "value": "inactive; negative"}
    ]},
    {"smiles": "Oc1ccc2ncccc2c1", "values": [
      {"measurement": "mutagenic call", "setting": "[5]", "value": "inactive; negative"},
      {"measurement": "mutagenic call", "setting": "Test System: AMES SALMONELLA TYPHIMURIUM, Strain/Indicator: TA100, Metabolic Activation: RAT, LIVER, S-9, AROCLOR 1254 (10% OR 20%), Method: STANDARD PLATE", "value": "inactive; negative"}
    ]},
    {"smiles": "Cn1c(NO)nc2c3cccnc3ccc21", "values": [
      {"measurement": "mutagenic call", "setting": "Test System: AMES SALMONELLA TYPHIMURIUM, Strain/Indicator: TA98(NR), Metabolic Activation: NADPH, Method: STANDARD PLATE", "value": "active; positive"},
      {"measurement": "mutagenic call", "setting": "Test System: AMES SALMONELLA TYPHIMURIUM, Strain/Indicator: TA98(NR), Metabolic Activation: NONE, Method: STANDARD PLATE", "value": "active; positive"},
      {"measurement": "mutagenic call", "setting": "Test System: AMES SALMONELLA TYPHIMURIUM, Strain/Indicator: TA98(NR), Metabolic Activation: RAT, LIVER, MICROSOMES, NADPH, Method: STANDARD PLATE", "value": "active; positive"},
      {"measurement": "mutagenic call", "setting": "Test System: AMES SALMONELLA TYPHIMURIUM, Strain/Indicator: TA98(NR), Metabolic Activation: RAT, LIVER, MICROSOMES, Method: STANDARD PLATE", "value": "active; positive"},
      {"measurement": "mutagenic call", "setting": "Test System: AMES SALMONELLA TYPHIMURIUM, Strain/Indicator: TA98(NR), Method: STANDARD PLATE", "value": "active; positive"},
      {"measurement": "mutagenic call", "setting": "[3]", "value": "active; positive"}
    ]},
    {"smiles": "C=CCOC(=O)CC(C)C", "values": [
      {"measurement": "mutagenic call", "setting": "[1]", "value": "inactive; negative"},
      {"measurement": "mutagenic call", "setting": "Test System: AMES SALMONELLA TYPHIMURIUM, Strain/Indicator: TA98, Metabolic Activation: HAMSTER, LIVER, S-9, AROCLOR 1254, Method: PREINCUBATION", "value": "inactive; negative"},
      {"measurement": "mutagenic call", "setting": "[2]", "value": "inactive; negative"},
      {"measurement": "mutagenic call", "setting": "Test System: AMES SALMONELLA TYPHIMURIUM, Strain/Indicator: TA98, Metabolic Activation: RAT, LIVER, S-9, AROCLOR 1254, Method: PREINCUBATION", "value": "inactive; negative"},
      {"measurement": "mutagenic call", "setting": "Test System: AMES SALMONELLA TYPHIMURIUM, Strain/Indicator: TA100, Metabolic Activation: HAMSTER, LIVER, S-9, AROCLOR 1254, Method: PREINCUBATION", "value": "inactive; negative"},
      {"measurement": "mutagenic call", "setting": "[4]", "value": "inactive; negative"},
      {"measurement": "mutagenic call", "setting": "Test System: AMES SALMONELLA TYPHIMURIUM, Strain/Indicator: TA100, Metabolic Activation: RAT, LIVER, S-9, AROCLOR 1254, Method: PREINCUBATION", "value": "inactive; negative"},
      {"measurement": "mutagenic call", "setting": "Test System: AMES SALMONELLA TYPHIMURIUM, Strain/Indicator: TA1535, Metabolic Activation: HAMSTER, LIVER, S-9, AROCLOR 1254, Method: PREINCUBATION", "value": "inactive; negative"},
      {"measurement": "mutagenic call", "setting": "[6]", "value": "inactive; negative"},
      {"measurement": "mutagenic call", "setting": "Test System: AMES SALMONELLA TYPHIMURIUM, Strain/Indicator: TA1535, Metabolic Activation: RAT, LIVER, S-9, AROCLOR 1254, Method: PREINCUBATION", "value": "inactive; negative"},
      {"measurement": "mutagenic call", "setting": "Test System: AMES SALMONELLA TYPHIMURIUM, Strain/Indicator: TA1537, Metabolic Activation: HAMSTER, LIVER, S-9, AROCLOR 1254, Method: PREINCUBATION", "value": "inactive; negative"},
      {"measurement": "mutagenic call", "setting": "Test System: AMES SALMONELLA TYPHIMURIUM, Strain/Indicator: TA1537, Metabolic Activation: NONE, Method: PREINCUBATION", "value": "inactive; negative"},
      {"measurement": "mutagenic call", "setting": "Test System: AMES SALMONELLA TYPHIMURIUM, Strain/Indicator: TA1537, Metabolic Activation: RAT, LIVER, S-9, AROCLOR 1254, Method: PREINCUBATION", "value": "inactive; negative"}
    ]}
  ]
}
